Laboratory results: patent US10844002B2, “Lipids and lipid compositions for the delivery of active agents” (priority 2014, dated 2020)

How the values were obtained:
[1] = Measurement of mRNA encapsulation in lipid nanoparticles (Quant-iT Ribogreen); type: physicochemical; details: LNP cationic lipid/DSPC/cholesterol/stealth lipid, N:P 4:1, leptin mRNA
Description: All equipment and disposable supplies are certified free of RNase activity by the manufacturer or rendered RNase free by use of the RNaseZap reagent (LifeTechnologies). mRNA is encapsulated at a cationic lipid amine to mRNA phosphate (N:P) molar ratio of 4:1. Lipids (cationic lipid, DSPC, cholesterol and lipidated PEG or stealth lipid) are dissolved in ethanol. The molar ratios are 40:10:38:2, respectively. The mixture is sonicated briefly, then gently agitated for 5 minutes and then maintained at 37° C. until use. mRNA is exchanged into citrate buffer pH 5.8-6.0 by use of Amicon Ultra-15 centrifugal concentrators, and the final concentration is adjusted to 0.5 mg/ml and held at 37° C. until use. An equal volume of lipids in ethanol, mRNA in citrate buffer, and citrate buffer alone are drawn into disposable syringes. Tubing leading from syringes containing lipids and mRNA are attached to the T junction, and tubing leading from the syringe containing citrate buffer alone is paired with the tubing exiting the T-junction over a collection vessel containing a stir bar on an active stir plate. Syringes are placed in a syringe pump set to expel contents at a flow rate of 1 ml per minute.
The pump is activated, and the collected mRNA in lipid nanoparticles is transferred to SnakeSkin dialysis tubing (10,000 MWCO, Thermo Scientific). Material is dialyzed against RNAse- and pyrogen-free 1× phosphate buffered saline overnight at 4° C.
Percent encapsulation of mRNA in lipid nanoparticles is determined using the Quant-iT Ribogreen RNA Assay kit (Life Technologies). The LNP-mRNA suspension is assayed in buffer (mRNA outside the particle), and buffer plus Triton X-100 detergent (total mRNA). The difference calculated is the mRNA inside the particle. Prepare a 1000 ng/mL stock from the RNA provided in the kit and use this to generate a standard curve (0 ng/ml, 15.63-1000 ng/ml) in TE and TE+0.75% Triton X-100. Prepare LNP-mRNA samples in TE buffer and TE buffer+0.75% Triton X-100 with appropriate dilution so that reading is in the range of standard curve (400-2,000 fold). In a 384-well plate (Costar non-treated #3573) add 0.04 ml of standard (in duplicate) or sample (in triplicate) per well. Dilute Ribogreen reagent 240-fold in TE buffer and add 0.06 ml per well. Mix contents of wells and measure fluorescence (excitation=480 nm, emission=520 nm). Subtract background values (no RNA) from standard and test sample values and determine the concentrations of RNA in the samples using the standard curves. Determine the percent encapsulation of the sample by dividing the difference in concentrations between sample+triton and sample in buffer alone by the sample+triton concentration.

[2] = system: RSV F protein; type: in vivo; details: Table 4; BALB/c mice, intramuscular, 1 ng vA375 replicon in LNP, days 0 and 21
[3] = Encapsulation efficiency of RNA replicons (Quant-iT RiboGreen); type: physicochemical; details: LNP 40% cationic lipid, 10% DSPC, 48% cholesterol, 2% PEG-DMG; RNA replicon
Description: Briefly, lipids were dissolved in ethanol (2m1), a RNA replicon was dissolved in buffer (2 ml, 100 mM sodium citrate, pH 6) and these were mixed with 2 ml of buffer followed by 1 hour of equilibration. The mixture was then dialized overnight against 1×PBS. The resulting product contained liposomes, with ˜70-95% encapsulation efficiency.
The percentage of encapsulated RNA and RNA concentration were determined by Quant-iT RiboGreen RNA reagent kit (Invitrogen), following manufacturer's instructions. The ribosomal RNA standard provided in the kit was used to generate a standard curve. LNPs were diluted 10× or 100× in 1× TE buffer (from kit) before addition of the dye. Separately, LNPs were diluted 10× or 100× in 1× TE buffer containing 0.5% Triton X before addition of the dye (to disrupt the LNPs and thus to assay total RNA). Thereafter an equal amount of dye was added to each solution and then ˜180 μL of each solution after dye addition was loaded in duplicate into a 96 well tissue culture plate. The fluorescence (Ex 485 nm, Em 528 nm) was read on a microplate reader. All LNP formulations were dosed in vivo based on the encapsulated amount of RNA.

[4] = Characterization of LNP formulations: Z average particle diameter and polydispersity index; type: physicochemical; details: LNP formulation; for Zav (nm): Z average particle diameter; for polydispersity: polydispersity index
From the text: The lipid nanoparticles have a size of about 1 to about 2,500 nm, about 1 to about 1,500 nm, about 1 to about 1,000 nm, in a sub-embodiment about 50 to about 600 nm, in a sub-embodiment about 50 to about 400 nm, in a sub-embodiment about 50 to about 250 nm, and in a sub-embodiment about 50 to about 150 nm. Unless indicated otherwise, all sizes referred to herein are the average sizes (diameters) of the fully formed nanoparticle, as measured by dynamic light scattering on a Malvern Zetasizer. The nanoparticle sample is diluted in phosphate buffered saline (PBS) so that the count rate is approximately 200-400 kcts. The data is presented as a weighted average of the intensity measure.

| SMILES | % encapsulation (mRNA Leptin) [1] | Log10(IgG titer), 1 ng RNA (RSV-F), 2 weeks post 2nd immunization [2] | Encapsulation efficiency (RNA %) [3] | Zav (nm) [4] | polydispersity [4] |
| --- | --- | --- | --- | --- | --- |
| CCCCCCCCCC(=O)OCCCCCCCCOc1ccc(OCCCCCCCCOC(=O)CCCCCCCCC)c(COC(=O)CCCN(C)C)c1 [Example 7, ((2-(((4-(dimethylamino)butanoyl)oxy)methyl)-1,4-phenylene)bis(oxy))bis(octane-8,1-diyl) bis(decanoate)] | 95.4% | 4.37 | 85.6% | 100.7 nm | 0.096 |
| CCCCC/C=C\C/C=C\CCCCCCCCOc1cc(COC(=O)OCCCN(C)C)c(OCCCCCCCC/C=C\C/C=C\CCCCC)cc1C [Example 14, 3-(dimethylamino)propyl 4-methyl-2,5-bis((9Z,12Z)-octadeca-9,12-dien-1-yloxy)benzyl Carbonate] | 77.9% | 3.85 | 78.3% | 127.7 nm | 0.102 |
